Legend:
SPT [1] = conditions: literature statement; cited from earlier work
SPT [2] = target: T1, SPT (Homo sapiens, UniProt O15269+O15270); assay: Serine palmitoyltransferase activity, Assay C ([3H]serine incorporation into lipids, cell homogenate); format: biochemical; conditions: for inhibition of SPT (in words): Assay C, at the doses of Table 2
T1 construct: endogenous in cells
T1 sequence (O15269 1-473): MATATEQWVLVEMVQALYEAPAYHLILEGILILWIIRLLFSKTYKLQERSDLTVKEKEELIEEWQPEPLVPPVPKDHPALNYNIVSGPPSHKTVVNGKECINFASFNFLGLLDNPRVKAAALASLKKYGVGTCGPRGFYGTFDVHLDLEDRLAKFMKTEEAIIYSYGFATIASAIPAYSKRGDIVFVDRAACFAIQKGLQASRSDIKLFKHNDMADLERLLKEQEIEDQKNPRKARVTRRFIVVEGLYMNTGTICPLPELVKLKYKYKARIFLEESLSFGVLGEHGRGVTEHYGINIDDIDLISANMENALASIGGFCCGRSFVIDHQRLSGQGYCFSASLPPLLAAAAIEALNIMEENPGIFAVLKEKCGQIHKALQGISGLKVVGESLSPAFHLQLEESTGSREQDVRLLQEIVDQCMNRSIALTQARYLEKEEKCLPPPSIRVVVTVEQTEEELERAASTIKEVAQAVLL
T1 sequence (O15270 1-562): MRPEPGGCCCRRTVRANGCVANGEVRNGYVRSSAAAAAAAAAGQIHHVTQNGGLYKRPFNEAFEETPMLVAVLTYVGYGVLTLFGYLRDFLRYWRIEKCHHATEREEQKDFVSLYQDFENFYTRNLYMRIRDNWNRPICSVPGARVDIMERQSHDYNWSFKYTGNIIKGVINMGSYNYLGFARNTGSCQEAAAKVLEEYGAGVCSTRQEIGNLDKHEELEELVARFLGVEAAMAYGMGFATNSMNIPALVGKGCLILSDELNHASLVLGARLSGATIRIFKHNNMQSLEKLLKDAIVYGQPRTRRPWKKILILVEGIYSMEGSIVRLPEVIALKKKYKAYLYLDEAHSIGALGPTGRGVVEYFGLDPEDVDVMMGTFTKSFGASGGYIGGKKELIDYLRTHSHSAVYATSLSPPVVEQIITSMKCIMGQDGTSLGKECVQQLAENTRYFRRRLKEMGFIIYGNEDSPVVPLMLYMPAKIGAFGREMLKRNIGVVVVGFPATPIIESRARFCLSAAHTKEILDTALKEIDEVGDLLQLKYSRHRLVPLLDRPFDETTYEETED
T1 sequence (Q969W0 1-71 partner): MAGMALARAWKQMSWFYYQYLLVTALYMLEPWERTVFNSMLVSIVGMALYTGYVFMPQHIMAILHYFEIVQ
Protocol: An alternative assay for evaluating inhibition of SPT, the enzyme present in commonly cultured cells, is performed with CHO cells or a human cell line. Cells are washed three times with ice-cold phosphate-buffered saline (PBS). A total of 0.5 mL of lysis buffer [50 mM Hepes (pH 8.0) containing 5 mM ethylenediaminetetraacetic acid (EDTA) and 5 mM dithiothreitol (DTT)] is added to each dish. The cells are scraped using a rubber policeman, and are then transferred to a test tube on ice. The cell suspension is sonicated three times for 5 s at 1–2 min intervals on ice. Protein concentrations in cell homogenates are measured using a Bradford protein assay kit (Bio-Rad). To measure the SPT activity, 0.1 mL of cell homogenates are added to 0.1 mL of reaction buffer [20 mM Hepes (pH 8.0) containing 5 mM EDTA, 10 mM DTT, 50 μM pyridoxal-5′-phosphate, 0.4 mM palmitoyl CoA, 2 mM L-serine, 10 μCi of [^3H]serine, and test compound or standard inhibitor (myriocin). After incubation at 37° C. for 20 min with shaking, the reaction is terminated with 0.5 mL of 0.5 N NH4OH containing 10 mM L-serine. The lipid products are extracted using the solvent system: 3 mL of chloroform/methanol (1:2), 25 μg of sphingosine (1 mg/mL in ethanol) as a carrier, 2 mL of chloroform, and 3.8 mL of 0.5 N NH4OH. After vigorous mixing, the phases are separated by centrifugation at 2500 rpm for 5 min. The aqueous layer is removed by aspiration, and the lower chloroform layer is washed 3 times with 4.5 mL of water. The chloroform layer is transferred to a scintillation vial, and the solvent is evaporated under N2 gas. The radioactivity is measured with a LS6000TA liquid scintillation counter (Beckman). Nonspecific conversion of [^3H] serine to chloroform-soluble species is determined by performing the assay in the absence of palmitoyl CoA. The count of the background is about one-sixth of the count of 100% activity.
An alternative assay using a non-chlorinated solvent modification of the Blye and Dyer lipid extraction method reported in Smedes (Smedes, F., Analyst 124:1711–18 (1999)) was employed to evaluate exemplary compounds. In this approach, the cells were washed three times with ice-cold phosphate-buffered saline and 0.5 mL of lysis buffer was added to each dish. The cells were scraped using a rubber policeman and transfer to a test tube on ice. The cell suspension was sonicated three times for 5 s at 1–2 min intervals on ice. A 0.1 mL sample of cell homogenates were added to 0.1 mL of reaction buffer in a test tube containing the appropriate concentration of test substance and 10 μCi of [^3H] serine. The reaction mixture was incubated at 37° C. for 20 min with shaking, and the reaction was terminated with 0.5 mL of […] NH4OH stop solution containing 10 mM unlabeled L-serine. Total lipids are extracted by transferring the contents of the test tube into a 15 ml centrifuge tube containing: 4.5 mL of isopropanol/cyclohexane (4:5) containing 25 μg of sphingosine (1 mg/mL in ethanol and diluted into the isopropanol/cyclohexane mixture) as a carrier. The contents were mixed vigorously and 4 mL of 0.5 N NH4OH was added. The phases were separated by centrifugation at 2500 rpm for 5 min. An accurately measured portion of the organic layer (4.0 ml) was added to a scintillation vial with 1 ml of water. Ultima Gold F (5 ml) was added, the vial was vortexed and allowed to settle into separate layers. The amount of [^3H] serine radioactivity incorporated into lipids was quantified in a scintillation counter. Non-specific counts were determined by carrying out the assay with control samples containing no palmitoyl CoA.

Rat pancreatic islets = assay: Protection of islets from fatty acid (palmitate) induced apoptosis, propidium iodide flow cytometry; format: cell-based; conditions: 3 days; for % Apoptosis: Fatty Acid medium (1 millimolar sodium palmitate), Control medium 2.40, Fatty Acid medium 17.60
Protocol: Islet protection by an exemplary compound was evaluated in an assay according to Eitel, K, et al (2002), and results obtained in this assay are reported below in Table 4. Rat pancreatic islets were cultured with control medium (RPMI 1640 supplemented with 10% fetal bovine serum, antibiotics and made […]) or in medium supplemented with 1 millimolar sodium palmitate (Fatty Acid Medium) during a period of 3 days. The culture medium was changed after 2 days to an identical composition culture medium with fresh inhibitor in the appropriate wells. Cells were stained with propidium iodide (PI), washed and propidium staining of cells (as a measure of cellular DNA content) was assessed by flow cytometry. The percentage of cells having less than the normal amount of PI staining was considered to be apoptotic cells (Eitel, K, et al. (2002)).

beta cell apoptosis = conditions: diabetic Zucker fatty rat model; cited from earlier work
[3] = 1 nM, Table 2, No Inhibitor 4443/4483, no CoA blank 305
[4] = 10 nM, Table 2, No Inhibitor 4443/4483, no CoA blank 305

| Structure (SMILES) | activity against SPT (in words) (SPT [1]) | Counts (SPT [2]; [3]) | Counts (SPT [2]; [4]) | inhibition of SPT (in words) (SPT [2]) | % Apoptosis (Rat pancreatic islets) [%] | also measured |
| --- | --- | --- | --- | --- | --- | --- |
| CCCCCCCCc1ccc(CCC(N)(CO)C(=O)O)cc1 (stereo not shown) [Compound 2] | did not exhibit activity against SPT | – | – | – | – | – |
| CCCCCCCOc1ccc(CCC(N)(CO)C(=O)O)cc1 (stereo not shown) [Compound 12] | – | 4215 | 4118 | moderate activity | 2.33 | Counts (SPT [2]; 100 nM, Table 2, No Inhibitor 4443/4483, no CoA blank 305): 4258; Counts (SPT [2]; 1 μM, Table 2, No Inhibitor 4443/4483, no CoA blank 305): 4169; Counts (SPT [2]; 10 μM, Table 2, No Inhibitor 4443/4483, no CoA blank 305): 4608; protection of cells from the fatty acid treatment (in words) (Rat pancreatic islets; rat islets, fatty acid medium): fully protect cells |
| CCCCCCCCc1ccc(CCC(N)(CO)CO)cc1 [FTY720] | do not inhibit SPT | – | – | – | – | – |
| CCCCCCC(=O)CCCCCC/C=C/C[C@@H](O)[C@H](O)[C@@](N)(CO)C(=O)O [ISP, myriocin] | – | 2509 | 535 | potent but non-selective inhibition of SPT | 14.65 | Counts (SPT [2]; 10 nM, Table 3, Control 5816, No Palm CoA 611): 959 |
| N[C@@H]1CON=C1O [cycloserine] | – | – | – | – | – | partial beta cell protective effect (beta cell apoptosis): ~50 % activity |
